In patent US20200332133A1, “SOLVENT AND METHOD OF FORMING ORGANIC FILM USING SOLVENT” (FLOSFIA INC., priority 2017, published 2020):
≈ marks a conversion by molar mass, not a printed value.

Assay: Solubility of the organic compound in nonpolar / polar solvent (added to 1.0 mL solvent to saturation point)
Type: physicochemical
Excerpt: The raw material(s) is not particularly limited as long as the raw material(s) contains the organic compound, and the raw materials may contain the organic compound and an additive. The additive is not particularly limited as long as an object of a present inventive subject matter is not interfered with, and may be a known additive. The mixing ratio of the additive in the raw materials is not particularly limited, however, preferably in a range of 0.00001 mol % to 30 mol %, and further preferably in a range of 0.0001 mol % to 10 mol %. […] According to a present inventive subject matter, the organic compound is added into the polar solvent that is 1.0 mL to saturation point, and the remaining organic compound in the polar solvent was measured by deducting the remaining amount of organic compound in the polar solvent from the total amount of added organic compound in the polar solvent. […] According to a present inventive subject matter, the organic compound is added into the nonpolar solvent that is 1.0 mL to saturation point, and the remaining organic compound in the nonpolar solvent was measured by deducting the remaining amount of organic compound in the nonpolar solvent from the total amount of added organic compound in the nonpolar solvent. […]

c12c3c4c5c1c1c6c7c2c2c8c3c3c9c4c4c%10c5c5c1c1c6c6c%11c7c2c2c7c8c3c3c8c9c4c4c9c%10c5c5c1c1c6c6c%11c2c2c7c3c3c8c4c4c9c5c1c1c6c2c3c41 [C60 fullerene]
dissolution into the solvent (Comparative Example 4, only 2-Pyrrolidone used as the solvent of the raw-material solution): hardly dissolved
solubility to mesitylene (nonpolar solvent mesitylene, temperature of 25° C.): 1500 µg/mL (≈ 2080 µM)
